# Legend:
# Assay in all cases: AK assay 384-well format, Prestwick library screening
# [1] = test system: A. baumannii strain 98-37-09; assay type: cell-based, Acinetobacter baumannii; conditions: 50 μM final drug concentration; for AK-based Prestwick Library Screening Results, A. baumannii (fold increase in extracellular AK activity): planktonic
# E. faecium = assay type: cell-based, Enterococcus faecium; conditions: 50 μM final drug concentration; for AK-based Prestwick Library Screening Results, E. faecium (fold increase in extracellular AK activity): planktonic
# E. cloacae = assay type: cell-based, Enterobacter cloacae; conditions: 50 μM final drug concentration; for AK-based Prestwick Library Screening Results, E. cloacae (fold increase in extracellular AK activity): planktonic
# K. pneumoniae = assay type: cell-based, Klebsiella pneumoniae; conditions: 50 μM final drug concentration; for AK-based Prestwick Library Screening Results, K. pneumoniae (fold increase in extracellular AK activity): planktonic
# E. coli = assay type: cell-based, Escherichia coli; conditions: 50 μM final drug concentration; for AK-based Prestwick Library Screening Results, E. coli (fold increase in extracellular AK activity): planktonic
# P. aeruginosa = assay type: cell-based, Pseudomonas aeruginosa; conditions: 50 μM final drug concentration; for AK-based Prestwick Library Screening Results, P. aeruginosa (fold increase in extracellular AK activity): planktonic
# [2] = test system: S. aureus strain USA300-0114; assay type: cell-based, Staphylococcus aureus; conditions: 50 μM final drug concentration; for AK-based Prestwick Library Screening Results, S. aureus (fold increase in extracellular AK activity): planktonic
# [3] = 384-well format, cutoff for positive-scoring molecules 3-fold increase
# [4] = cutoff for positive-scoring molecules 3-fold increase
# [5] = cutoff for positive 3-fold increase
structure (smiles),measurement,setting,value
"OCC(O)CN1CCN(c2ccccc2)CC1 (racemic) [Dropropizine (R,S)]","AK-based Prestwick Library Screening Results, A. baumannii (increase in extracellular AK activity)",[1]; [3],0.5
same,"AK-based Prestwick Library Screening Results, E. faecium (increase in extracellular AK activity)",E. faecium; [3],0.9
same,"AK-based Prestwick Library Screening Results, E. cloacae (increase in extracellular AK activity)",E. cloacae; [3],0.5
same,"AK-based Prestwick Library Screening Results, K. pneumoniae (increase in extracellular AK activity)",K. pneumoniae; [3],0.5
same,"AK-based Prestwick Library Screening Results, E. coli (increase in extracellular AK activity)",E. coli; [3],0.7
same,"AK-based Prestwick Library Screening Results, P. aeruginosa (increase in extracellular AK activity)",P. aeruginosa; [3],0.5
same,"AK-based Prestwick Library Screening Results, S. aureus (increase in extracellular AK activity)",[2]; [3],0.5
"Nc1c2c(nc3ccccc13)CCCC2O.O=C(O)/C=C\C(=O)O (racemic) [Hydroxytacrine maleate (R,S)]","AK-based Prestwick Library Screening Results, A. baumannii (increase in extracellular AK activity)","[1]; planktonic A. baumannii, cutoff for positive-scoring molecules 3-fold increase",1.0
same,"AK-based Prestwick Library Screening Results, E. faecium (increase in extracellular AK activity)","E. faecium; planktonic E. faecium, cutoff for positive-scoring molecules 3-fold increase",1.0
same,"AK-based Prestwick Library Screening Results, E. cloacae (increase in extracellular AK activity)","E. cloacae; planktonic E. cloacae, cutoff for positive-scoring molecules 3-fold increase",1.3
same,"AK-based Prestwick Library Screening Results, K. pneumoniae (increase in extracellular AK activity)","K. pneumoniae; planktonic K. pneumoniae, cutoff for positive-scoring molecules 3-fold increase",1.0
same,"AK-based Prestwick Library Screening Results, E. coli (increase in extracellular AK activity)","E. coli; planktonic E. coli, […]",1.3
same,"AK-based Prestwick Library Screening Results, P. aeruginosa (increase in extracellular AK activity)","P. aeruginosa; planktonic P. aeruginosa, cutoff for positive-scoring molecules 3-fold increase",1.0
same,"AK-based Prestwick Library Screening Results, S. aureus (increase in extracellular AK activity)","[2]; planktonic S. aureus, cutoff for positive-scoring molecules 3-fold increase",3.0
"COc1ccc(CC2c3cc(OC)c(OC)cc3CCN2C)cc1OC (racemic) [Laudanosine (R,S)]","AK-based Prestwick Library Screening Results, A. baumannii (increase in extracellular AK activity)","[1]; planktonic A. baumannii, […]",0.9
same,"AK-based Prestwick Library Screening Results, E. faecium (increase in extracellular AK activity)","E. faecium; planktonic E. faecium, […]",0.9
same,"AK-based Prestwick Library Screening Results, E. cloacae (increase in extracellular AK activity)","E. cloacae; planktonic E. cloacae, […]",1.3
same,"AK-based Prestwick Library Screening Results, K. pneumoniae (increase in extracellular AK activity)","K. pneumoniae; planktonic K. pneumoniae, […]",0.7
same,"AK-based Prestwick Library Screening Results, E. coli (increase in extracellular AK activity)","E. coli; planktonic E. coli, […]",1.0
same,"AK-based Prestwick Library Screening Results, P. aeruginosa (increase in extracellular AK activity)","P. aeruginosa; planktonic P. aeruginosa, […]",0.9
same,"AK-based Prestwick Library Screening Results, S. aureus (increase in extracellular AK activity)","[2]; planktonic S. aureus, […]",0.7
"COCCc1ccc(OCC(O)CNC(C)C)cc1.COCCc1ccc(OCC(O)CNC(C)C)cc1.O=C(O)C(O)C(O)C(=O)O (racemic) [Metoprolol-(+,−) (+)-tartrate salt]","AK-based Prestwick Library Screening Results, A. baumannii (fold increase in extracellular AK activity)",[1]; [4],0.7
same,"AK-based Prestwick Library Screening Results, E. faecium (fold increase in extracellular AK activity)",E. faecium; [4],0.9
same,"AK-based Prestwick Library Screening Results, E. cloacae (fold increase in extracellular AK activity)",E. cloacae; [4],7.0
same,"AK-based Prestwick Library Screening Results, K. pneumoniae (fold increase in extracellular AK activity)",K. pneumoniae; [4],0.5
same,"AK-based Prestwick Library Screening Results, E. coli (fold increase in extracellular AK activity)",E. coli; [4],0.6
same,"AK-based Prestwick Library Screening Results, P. aeruginosa (fold increase in extracellular AK activity)",P. aeruginosa; [4],0.7
same,"AK-based Prestwick Library Screening Results, S. aureus (fold increase in extracellular AK activity)",[2]; [4],0.6
CC(=O)NC1CCSC1=O (racemic) [N-Acetyl-DL-homocysteine Thiolactone],"AK-based Prestwick Library Screening Results, A. baumannii (fold increase in extracellular AK activity)",[1]; [5],0.4
same,"AK-based Prestwick Library Screening Results, E. faecium (fold increase in extracellular AK activity)",E. faecium; [5],0.8
same,"AK-based Prestwick Library Screening Results, E. cloacae (fold increase in extracellular AK activity)",E. cloacae; [5],0.7
same,"AK-based Prestwick Library Screening Results, K. pneumoniae (fold increase in extracellular AK activity)",K. pneumoniae; [5],0.4
same,"AK-based Prestwick Library Screening Results, E. coli (fold increase in extracellular AK activity)",E. coli; [5],0.5
same,"AK-based Prestwick Library Screening Results, P. aeruginosa (fold increase in extracellular AK activity)",P. aeruginosa; [5],0.3
same,"AK-based Prestwick Library Screening Results, S. aureus (fold increase in extracellular AK activity)",[2]; [5],0.4
"CN1CCC2(C)c3cc(O)ccc3N(C)C12.O=C(O)/C=C/C(=O)O (single isomer, unassigned; (-)) [(−)-Eseroline fumarate salt]","AK-based Prestwick library screening result, A. baumannii (fold increase in extracellular AK activity)","[1]; planktonic A. baumannii, […]",0.9
same,"AK-based Prestwick library screening result, E. faecium (fold increase in extracellular AK activity)","E. faecium; planktonic E. faecium, […]",1.1
same,"AK-based Prestwick library screening result, E. cloacae (fold increase in extracellular AK activity)","E. cloacae; planktonic E. cloacae, […]",1.4
same,"AK-based Prestwick library screening result, K. pneumoniae (fold increase in extracellular AK activity)","K. pneumoniae; planktonic K. pneumoniae, […]",0.9
same,"AK-based Prestwick library screening result, E. coli (fold increase in extracellular AK activity)","E. coli; planktonic E. coli, […]",1.0
same,"AK-based Prestwick library screening result, P. aeruginosa (fold increase in extracellular AK activity)","P. aeruginosa; planktonic P. aeruginosa, […]",0.8
same,"AK-based Prestwick library screening result, S. aureus (fold increase in extracellular AK activity)","[2]; planktonic S. aureus, […]",0.9
